Reference: ChEMBL document CHEMBL4765337, “Optical control of muscular nicotinic channels with azocuroniums, photoswitchable azobenzenes bearing two N-methyl-N-carbocyclic quaternary ammonium groups” (Eur J Med Chem, 2020)
pKi: −log10 of the molar value. The source made the active and inactive calls. The calls are words filed in the database; no cut-off is given here.

Tests used:
[1] = Thermodynamic solubility of the compound in aqueous phosphate buffer at pH 7.4 measured after 24 hrs by UV-spectra reader analysis; format: physicochemical; conditions: read-out: Therm_solubility
[2] = Effective permeability of compound measured after 240 mins by PAMPA-BBB assay based UV/Vis spectrophotometer analysis; format: ADME; conditions: read-out: Peff
RAW264.7 = assay: Cytotoxicity against mouse RAW264.7 cells assessed as cell viability at 10 uM measured after 24 hrs by MTT assay; format: cell-based; conditions: raw264.7, 24 h
[3] = molecular target: T1, Neuronal acetylcholine receptor; alpha4/beta2 (Homo sapiens, UniProt P17787+P43681); assay: Displacement of [125I] alpha bungarotoxin from human neuronal alpha4beta2 nAChR expressed in human SH-SY5Y cell membrane at 10 uM measured after 120 mins by Topcount scintillation counting method; format: cell membranes
[4] = molecular target: T2, Neuronal acetylcholine receptor subunit alpha-7 (Homo sapiens, UniProt P36544); assay: Displacement of [125I] alpha bungarotoxin from human neuronal alpha7 nAChR expressed in human SH-SY5Y cell membrane measured after 120 mins by Topcount scintillation counting method; format: cell membranes
[5] = Displacement of [125I] alpha bungarotoxin from human muscle type nAChR expressed in human TE-671 cell membrane measured after 120 mins by Topcount scintillation counting method; format: cell membranes
[6] = molecular target: T1, Neuronal acetylcholine receptor; alpha4/beta2; assay: Displacement of [125I] alpha bungarotoxin from human neuronal alpha4beta2 nAChR expressed in human SH-SY5Y cell membrane measured after 120 mins by Topcount scintillation counting method; format: cell membranes
TE-671 = assay: Displacement of [125I] alpha bungarotoxin from human muscle type nAChR expressed in human TE-671 cell membrane at 10 uM measured after 120 mins by Topcount scintillation counting method; format: cell membranes; conditions: filed as antagonist
[7] = molecular target: T2, Neuronal acetylcholine receptor subunit alpha-7; assay: Displacement of [125I] alpha bungarotoxin from human neuronal alpha7 nAChR expressed in human SH-SY5Y cell membrane at 10 uM measured after 120 mins by Topcount scintillation counting method; format: cell membranes
[8] = Antagonist activity at rat alpha1beta1gamma1delta1 nAChR expressed in Xenopus laevis oocytes assessed as inhibition of ACh puff-induced maximum channel current amplitude measured at holding potential of -60 mV by two-electrode voltage clamp technique; format: cell-based; conditions: oocyte
Oocyte [9] = assay: Antagonist activity at rat alpha1beta1gamma1delta1 nAChR expressed in Xenopus laevis oocytes assessed as inhibition of ACh puff-induced maximum channel current amplitude by measuring current fraction ratio measured at holding potential of -60 mV by two-electrode voltage clamp technique; format: cell-based
[10] = (§1) Antagonist activity at rat alpha1beta1gamma1delta1 nAChR expressed in Xenopus laevis oocytes assessed as inhibition of ACh puff-induced maximum channel current amplitude using UV LED light irradiated compound measured at holding potential of -60 mV by two-electrode voltage clamp technique; format: cell-based; conditions: oocyte
Oocyte [11] = assay: as §1, with “amplitude by measuring current fraction ratio” for “amplitude”; format: cell-based
Homo sapiens [12] = organism: Homo sapiens; assay: Selectivity index, ratio of Ki for human neuronal alpha7 nAChR expressed in human SH-SY5Y cell membrane to Ki for human muscle type nAChR expressed in human TE-671 cell membrane; format: cell-based
Homo sapiens [13] = organism: Homo sapiens; assay: Selectivity index, ratio of Ki for human neuronal alpha4beta2 nAChR expressed in human SH-SY5Y cell membrane to Ki for human muscle type nAChR expressed in human TE-671 cell membrane; format: cell-based
Oocyte [14] = assay: (§2) Antagonist activity at rat alpha1beta1gamma1delta1 nAChR expressed in Xenopus laevis oocytes assessed as inhibition of ACh puff-induced maximum channel current amplitude at 5 uM measured at holding potential of -60 mV by two-electrode voltage clamp technique; format: cell-based; conditions: filed as antagonist
Oocyte [15] = assay: as §2, with “measured following irradiation with UV LED light irradiation” for “measured”; format: cell-based
Oocyte [16] = assay: as §1, with “constant UV LED light irradiation-induced channel activation by measuring faster decay of Ach-induced” for “ACh puff-induced maximum”, “amplitude at 0.5 uM” for “amplitude”, “blue” for “UV”; format: cell-based; conditions: filed as antagonist
Oocyte [17] = assay: Antagonist activity at rat alpha1beta1gamma1delta1 nAChR expressed in Xenopus laevis oocytes assessed as inhibition of ACh puff-induced maximum channel current amplitude at 0.1 to 5 uM measured following irradiation with UV LED light irradiation at holding potential of -60 mV by two-electrode voltage clamp technique; format: cell-based; conditions: dose 0.1-5 µM
Oocyte [18] = assay: Antagonist activity at rat alpha1beta1gamma1delta1 nAChR expressed in Xenopus laevis oocytes assessed as inhibition of ACh puff-induced maximum channel current amplitude at 0.1 to 5 uM measured at holding potential of -60 mV by two-electrode voltage clamp technique; format: cell-based; conditions: filed as antagonist, dose 0.1-5 µM

T2 sequence (P36544 whole entry): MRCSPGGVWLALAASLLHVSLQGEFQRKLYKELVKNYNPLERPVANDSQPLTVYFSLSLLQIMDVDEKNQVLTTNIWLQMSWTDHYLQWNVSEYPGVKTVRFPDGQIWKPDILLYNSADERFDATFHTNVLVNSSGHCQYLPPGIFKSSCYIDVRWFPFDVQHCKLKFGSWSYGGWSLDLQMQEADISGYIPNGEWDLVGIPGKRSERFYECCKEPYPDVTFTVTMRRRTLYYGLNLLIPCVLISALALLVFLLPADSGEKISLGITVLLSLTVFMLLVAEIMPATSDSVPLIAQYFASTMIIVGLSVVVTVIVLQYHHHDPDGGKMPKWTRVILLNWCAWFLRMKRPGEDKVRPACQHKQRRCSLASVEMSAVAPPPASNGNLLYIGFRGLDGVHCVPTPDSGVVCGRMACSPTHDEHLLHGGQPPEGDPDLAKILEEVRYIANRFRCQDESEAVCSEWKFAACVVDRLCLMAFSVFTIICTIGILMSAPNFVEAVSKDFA
T1 sequence (P17787 whole entry): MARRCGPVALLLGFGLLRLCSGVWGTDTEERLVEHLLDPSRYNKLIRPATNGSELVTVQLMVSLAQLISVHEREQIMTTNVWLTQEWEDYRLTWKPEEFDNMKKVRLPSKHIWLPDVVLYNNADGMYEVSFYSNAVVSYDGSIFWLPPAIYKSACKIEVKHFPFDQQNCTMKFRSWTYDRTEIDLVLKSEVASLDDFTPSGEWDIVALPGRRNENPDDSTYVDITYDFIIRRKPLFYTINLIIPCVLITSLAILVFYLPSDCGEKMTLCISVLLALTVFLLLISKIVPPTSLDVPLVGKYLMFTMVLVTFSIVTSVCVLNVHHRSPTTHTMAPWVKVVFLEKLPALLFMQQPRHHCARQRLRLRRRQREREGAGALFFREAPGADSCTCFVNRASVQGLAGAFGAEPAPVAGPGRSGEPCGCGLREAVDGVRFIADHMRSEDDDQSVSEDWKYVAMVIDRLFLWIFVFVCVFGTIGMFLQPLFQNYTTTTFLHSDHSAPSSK
T1 sequence (P43681 whole entry): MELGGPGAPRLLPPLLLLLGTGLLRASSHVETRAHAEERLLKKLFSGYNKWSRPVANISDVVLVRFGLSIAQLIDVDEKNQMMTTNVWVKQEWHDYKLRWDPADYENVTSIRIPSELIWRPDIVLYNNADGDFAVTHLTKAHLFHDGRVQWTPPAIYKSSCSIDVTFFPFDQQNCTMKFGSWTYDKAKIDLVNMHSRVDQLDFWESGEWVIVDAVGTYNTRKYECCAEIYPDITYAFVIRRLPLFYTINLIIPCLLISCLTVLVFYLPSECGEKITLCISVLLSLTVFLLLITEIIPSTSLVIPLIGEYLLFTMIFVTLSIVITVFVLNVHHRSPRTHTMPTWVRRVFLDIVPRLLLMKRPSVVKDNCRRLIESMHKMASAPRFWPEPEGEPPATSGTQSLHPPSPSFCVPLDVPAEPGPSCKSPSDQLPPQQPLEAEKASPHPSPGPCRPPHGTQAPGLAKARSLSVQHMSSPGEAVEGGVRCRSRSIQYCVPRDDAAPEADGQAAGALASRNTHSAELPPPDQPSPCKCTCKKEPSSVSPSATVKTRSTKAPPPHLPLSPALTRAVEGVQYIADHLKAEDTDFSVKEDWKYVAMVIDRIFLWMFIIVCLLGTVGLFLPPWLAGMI

C[N+]1(Cc2ccc(/N=N/c3ccc(C[N+]4(C)CCCC4)cc3)cc2)CCCC1.[I-].[I-]
solubility thermodynamic at 24 h [1]: 14.8 mM | Papp at 4 h [2]: < 1 ×10⁻⁶ cm/s | Activity (RAW264.7): Non-Toxic | inhibition ([3]; filed as antagonist): 45% | pKi [4]: 6.03 | pKi [5]: 6.70 | pKi [6]: < 5.00

C[N+]1(Cc2cccc(/N=N/c3ccccc3)c2)CCCCC1.[I-]
solubility thermodynamic at 24 h [1]: 5.5 mM | Papp at 4 h [2]: 2 ×10⁻⁶ cm/s | Activity (RAW264.7): Non-Toxic | inhibition (TE-671): 45% | inhibition ([7]; filed as antagonist): 48% | inhibition [3]: 39% | pKi [4]: < 5.00 | pKi [5]: < 5.00 | pKi [6]: < 5.00

C[N+]1(Cc2cccc(/N=N/c3cccc(C[N+]4(C)CC=CCC4)c3)c2)CC=CCC1.[I-].[I-] (centres undefined)
solubility thermodynamic at 24 h [1]: 16.3 mM | Papp at 4 h [2]: < 1 ×10⁻⁶ cm/s | Activity (RAW264.7): Non-Toxic | inhibition [3]: 32% | pKi [8]: 6.08 | pKi [4]: 6.14 | pKi [5]: 7.00 | pKi [6]: < 5.00 | Ratio (Oocyte [9]): 0.11

C[N+]1(Cc2cccc(/N=N\c3cccc(C[N+]4(C)CC=CCC4)c3)c2)CC=CCC1 (centres undefined)
pKi [10]: 6.06 | Ratio (Oocyte [11]): 0.35

C[N+]1(Cc2cccc(/N=N/c3cccc(C[N+]4(C)CCCC4)c3)c2)CCCC1.[I-].[I-]
solubility thermodynamic at 24 h [1]: 36.3 mM | Papp at 4 h [2]: < 1 ×10⁻⁶ cm/s | Activity (RAW264.7): Non-Toxic | inhibition [3]: 31% | pKi [4]: 5.60 | pKi [5]: 7.38 | pKi [6]: < 5.00 | Ratio Ki (Homo sapiens [12]): 60 | Ratio Ki (Homo sapiens [13]): > 240

C[N+]1(Cc2cccc(/N=N/c3cccc(C[N+]4(C)CCCCCC4)c3)c2)CCCCCC1.[I-].[I-]
solubility thermodynamic at 24 h [1]: 5.9 mM | Papp at 4 h [2]: < 1 ×10⁻⁶ cm/s | Activity (RAW264.7): Non-Toxic | inhibition [3]: 29% | pKi [8]: 6.52 | pKi [4]: 5.72 | pKi [5]: 6.66 | pKi [6]: < 5.00

C[N+]1(Cc2cccc(/N=N/c3cccc(C[N+]4(C)CCCCC4)c3)c2)CCCCC1.[I-].[I-]
inhibition (Oocyte [14]): Active | solubility thermodynamic at 24 h [1]: 38.4 mM | Papp at 4 h [2]: < 1 ×10⁻⁶ cm/s | Activity (RAW264.7): Non-Toxic | inhibition [3]: 7% | inhibition (Oocyte [15]): inactive | inhibition (Oocyte [16]): Active | inhibition (Oocyte [17]): inactive | inhibition (Oocyte [18]): Active | pKi [8]: 6.34 | pKi [4]: 6.04 | pKi [5]: 7.46 | pKi [6]: < 5.00 | Ratio Ki (Homo sapiens [12]): 26 | Ratio Ki (Homo sapiens [13]): > 290

C[N+]1(Cc2cccc(/N=N\c3cccc(C[N+]4(C)CCCCC4)c3)c2)CCCCC1
pKi [10]: 5.59

C[N+]1(Cc2cccc(/N=N\c3cccc(C[N+]4(C)CCCCCC4)c3)c2)CCCCCC1
pKi [10]: 5.59

Clc1ccc([C@H]2C[C@@H]3CC[C@H]2N3)cn1 [(-)-EPIBATIDINE]
pKi [4]: 6.92

C[N+]1(Cc2ccc(/N=N/c3ccc(C[N+]4(C)CCCCC4)cc3)cc2)CCCCC1.[I-].[I-]
solubility thermodynamic at 24 h [1]: 34.9 mM | Papp at 4 h [2]: < 1 ×10⁻⁶ cm/s | Activity (RAW264.7): Non-Toxic | inhibition [7]: 16% | pKi [4]: < 5.00 | pKi [5]: 5.96 | pKi [6]: 5.82
